According to US10478492B2, “Modifications of therapeutic agents for enhanced delivery to target sites” (Partikula LLC, priority 2016, dated 2019):
Read-outs that look alike come from different tables or passages of the source.

Assays:
[1] = molecular target: monocarboxylate transporters (MCT); conditions: competitive inhibitor of lactate transport in tumors; read-out: Ki as inhibitor of lactate transport; cited from earlier work
[2] = Stability in cell culture media containing 10% FBS by HPLC; type: in vitro ADME
Protocol: Stability of ADCA in cell culture media containing 10% FBS was examined by looking at the HPLC chromatograms and area under the peaks. For the study, […] solution of ADCA was prepared by mixing 10 μL of 100 mM DMSO stock solution with 1.99 mL of cell media. Turbidity was observed after mixing, however no precipitate was observed. The samples were then stored at 37° C., 150 μL aliquots were analyzed by HPLC (the sample was mixed before taking an aliquot, however no visible precipitate was observed even before mixing). Alanyl-DCA was detected at 205 nm with a retention time of 9.7 min on HPLC.
Stability of Mito-ADCA in cell culture media containing 10% FBS was monitored by examining the HPLC chromatograms and area under the peaks. Scheme below expected degradation products:
For this study, 500 μM solution of Mito-ADCA (MAD) was prepared by mixing 10 μL of 100 mM DMSO stock solution with 1.99 mL of cell culture media (RPMI 1640 medium, supplemented with 10% FBS, 1% Pen/strep). Turbidity was observed after mixing, however no precipitate was observed. The samples were then stored at 37° C., 150 μL aliquots were analyzed by HPLC (the sample was mixed before taking an aliquot, and no visible precipitate was observed even before mixing).
Using HPLC, MitoADCA (MAD), loss of one alanyl-DCA (MAD-ADCA), loss of three alanyl-DCA (i.e., TPP-Tris-OH) and the alanyl-DCA (ADCA) were tracked. MAD was detected and monitored at 268 nm with retention time of 18.08 min, Mito-A-DCA missing 1 alanyl DCA at 268 nm with retention time of 17.13 min, total amount of MAD and Mito-A-DCA missing 1 alanyl DCA at 268 nm, TPP-Tris-OH at 268 nm with retention time of 14.6 min, and alanyl DCA at 205 nm with retention time of 9.5 min. The MAD half-life in cell media at 500 μM was measured as ˜20 h. TPP-Tris-OH starts appearing in HPLC only after 10 h in media.

PDHK2 = PDHK2 (Homo sapiens, UniProt Q15119); conditions: cited from earlier work
[3] = test system: PDH activity in primary rat hepatocytes; conditions: read-out: EC50 for increase of PDH activity; cited from earlier work
A549 cells = assay: Cytotoxicity in A549 cells; type: cell-based
Source text: (§1) Next the cytotoxicity ability of PDCA and PDCA-NPs were studied in A549 and HCT16 cells to evaluate the ability of these new formulations with respect to NaDCA.
(§2) Next the cytotoxicity ability of PalmMetformin and NPs were studied in A549 and HCT16 cells to evaluate the ability of these new formulations with respect to Meformin.

HCT116 cells = assay: Cytotoxicity in HCT116 cells; type: cell-based
Source text: as §1, §2

[4] = Stability in 18% rat serum by HPLC; type: in vitro ADME
Protocol: (§3) In a further study, Mito-ADCA stability testing was carried out in rat serum. 0.5 mg/mL solutions 18% rat serum were prepared and analyzed by HPLC. Mito-ADCA was detected at 268 nm with a retention time of 18.08 min over time of 4500 min in 18% rat serum. […] After 2 d a peak of TPP-Tris-OH was observed. The amount of TPP-Tris-OH corresponded to 76% of the original.
(§4) Stability of TPP-bis-ADCA in rat serum and water was carried out using 500 μg/mL solution in 18% rat serum. The solution was analyzed by HPLC for two days.
(§5) Hydrolytic stability of TPP-ibDCA in serum, and in water was studied. A 500 μg/mL solution of TPP-ib-DCA in water, and in 18% rat serum was analyzed by HPLC using the method for Mito-ADCA/DCA detection described above. […] In water, hydrolysis of TPP-ib-DCA stops halfway likely due to the acidification of the solution.

[5] = Stability in water by HPLC; type: physicochemical; conditions: for stability in water: 2 days
Protocol: as §3, §4, §5

[6] = A549 cells, 24 + 48 h, read-out: IC50 (24 + 48 h)
[7] = A549 cells, 72 h, read-out: IC50 (72 h)
[8] = 500 μg/mL in 18% rat serum, two days

N#CC(=Cc1ccc(O)cc1)C(=O)O [ACCA, α-cyano-4-hydroxy cinnamic acid]
Ki [1]: 500 µM

O=C(O)CCNC(=O)C(Cl)Cl [ADCA, β-alanyl-DCA]
change in ADCA concentration (total area of absorbance peak) ([2]; 1.5 mM, cell culture media with 10% FBS, 37° C., five days): virtually no change in ADCA concentration over five days

CN(C)C(=O)c1ccc(S(=O)(=O)c2ccc(NC(=O)[C@@](C)(O)C(F)(F)F)c(Cl)c2)cc1 [AZD7545, 4-[3-chloro-4-[[(2R)-3,3,3-trifluoro-2-hydroxy-2-methylpropanoyl]amino]phenyl]sulfonyl-N,N-dimethylbenzamide]
IC50 (PDHK2): 0.0064 µM | EC50 [3]: 0.105 µM

CN(C)C(=N)N=C(N)N [Meformin, Metformin, reference compound]
IC50 (A549 cells; Homo sapiens, A549 cells, 24 + 48 h, Table 4, read-out: IC50 (24 + 48 h)): > 500 µM | IC50 (A549 cells; Homo sapiens, A549 cells, 72 h, Table 4, read-out: IC50 (72 h)): > 500 µM | IC50 (A549 cells; Homo sapiens, A549 cells, read-out: IC50 values): > 500 µM | IC50 (HCT116 cells; Homo sapiens, HCT-116, 24 + 48 h, Table 4, read-out: IC50 (24 + 48 h)): > 500 µM | IC50 (HCT116 cells; Homo sapiens, HCT-116, 72 h, Table 4, read-out: IC50 (72 h)): > 500 µM | IC50 (HCT116 cells; Homo sapiens, HCT-116, read-out: IC50 values): > 500 µM

O=C(CCCCC[P+](c1ccccc1)(c1ccccc1)c1ccccc1)NC(COC(=O)CCNC(=O)C(Cl)Cl)(COC(=O)CCNC(=O)C(Cl)Cl)COC(=O)CCNC(=O)C(Cl)Cl.[Br-] [Mito-ADCA, TPP-Tris-β-alanino-DCA]
half-life at 500 μM ([2]; cell culture medium with 10% FBS (no cells), 500 μM, RPMI 1640 with 10% FBS, 37° C.): ~20 h | species released by hydrolysis ([2]; cell media with 10% FBS): Alanyl-DCA is released as a result of hydrolysis instead of DCA | half-life at 0.5 mg/mL ([4]; 0.5 mg/mL in 18% rat serum): ~7 h | species released by hydrolysis ([4]; 18% rat serum): Alanyl-DCA is released as a result of hydrolysis instead of DCA | stability in water [5]: stable in water for 2 days without signs of decomposition

O=C([O-])C(Cl)Cl.[Na+] [NaDCA, reference compound]
IC50 (A549 cells; [6]): > 20000 µM | IC50 (A549 cells; [7]): > 20000 µM | IC50 (A549 cells; cell line not stated in the sentence (A549 and HCT16 cells studied), read-out: IC50 value): ≥ 20000 µM | IC50 (HCT116 cells; 24 + 48 h, read-out: IC50 (24 + 48 h)): > 20000 µM | IC50 (HCT116 cells; 72 h, read-out: IC50 (72 h)): > 20000 µM

CCCCCCCCCCCCCCCC(=O)NC(COC(=O)CCNC(=O)C(Cl)Cl)(COC(=O)CCNC(=O)C(Cl)Cl)COC(=O)CCNC(=O)C(Cl)Cl [PADCA, Palm-Tris-β-alanino-DCA]
IC50 (A549 cells; Homo sapiens, A549 cells, free PADCA, read-out: IC50 value): ~400 µM

CCCCCCCCCCCCCCCC(=O)NC(COC(=O)C(Cl)Cl)(COC(=O)C(Cl)Cl)COC(=O)C(Cl)Cl [PDCA, Palmitic-Tris-DCA]
IC50 (A549 cells; [6]): 204 µM | IC50 (A549 cells; [7]): 175 µM | IC50 (A549 cells; cell line not stated in the sentence (values match A549 of Table 2), read-out: IC50 value): ~204 µM

O=C(NCCCCC(NC(=O)C(Cl)Cl)C(=O)NCCCC[P+](c1ccccc1)(c1ccccc1)c1ccccc1)C(Cl)Cl (stereo not shown) [TPP-bis-ADCA]
decomposition in serum ([4]; 500 μg/mL in 18% rat serum, after 2 days): 2% | detection of DCA [4, 8]: no DCA was detected | stability in serum [4, 8]: stable in both serum and water | stability in water [5]: stable in both serum and water

CC(C)(OC(=O)C(Cl)Cl)C(=O)NCCCC[P+](c1ccccc1)(c1ccccc1)c1ccccc1.[Br-] [TPP-ib-DCA, (4-(2-(2,2-dichloroacetoxy)-2-methylpropanamido)butyl) triphenylphosphonium bromide]
appearance of free DCA ([4]; 500 μg/mL in 18% rat serum): delayed relative to the disappearance of the ester | hydrolysis in serum compared with MitoDCA ([4]; 500 μg/mL in 18% rat serum): slower than MitoDCA | hydrolysis in water ([5]; 500 μg/mL in water): stops halfway
